Data published in patent publication US11866518B2, “Bicyclic peptide ligands specific for TSLP” (BicycleTx Limited, priority 2020, dated 2024).
*1 amine or outer side, *2 acyl side, *3 side chain or, on linkers, in order; H or OH if unused. Where a SMILES comes first, the peptide text is derived from it. Bridges are numbered along the chain shown (N, C = ends). TATA = O=C(CC[*:1])N1CN(C(=O)CC[*:2])CN(C(=O)CC[*:3])C1

Target: TSLP (Homo sapiens, UniProt Q969D9)
Test: Human TSLP Surface Plasmon Resonance (SPR) binding assay
Design: The resulting construct spCD33-6×HN-TEV-hTSLP(29-159)-Avi; 6xHN tag with TEV site (N, cleaved yes); made in house; host or cells: Expi293F cells
Conditions: biotinylated human TSLP immobilized on streptavidin chip; 20° C.; steady-state or kinetic 1:1 fit; read-out: hTSLP SPR Kd

TSLP, sequence (Q969D9 29-159): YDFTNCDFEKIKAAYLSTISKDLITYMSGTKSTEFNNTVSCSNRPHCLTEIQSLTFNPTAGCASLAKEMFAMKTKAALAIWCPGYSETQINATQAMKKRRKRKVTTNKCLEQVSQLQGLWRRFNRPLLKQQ

## CC(C)C[C@@H]1NC(=O)[C@H](CO)NC(=O)[C@H](CCC(=O)O)NC(=O)[C@@H](NC(=O)[C@H](C)N)CSCCC(=O)N2CN3CN(C2)C(=O)CCSC[C@H](NC(=O)[C@H](CO)NC(=O)[C@H](Cc2c[nH]c4ccccc24)NC(=O)[C@@H]2CCCN2C(=O)[C@H](CC(=O)O)NC1=O)C(=O)N1CCC[C@H]1C(=O)N[C@@H](C(C)C)C(=O)N[C@@H](Cc1c[nH]c2ccccc12)C(=O)N[C@@H](Cc1c[nH]c2ccccc12)C(=O)N[C@@H](CCCNC(=N)N)C(=O)N[C@H](C(=O)N[C@@H](C)C(N)=O)CSCCC3=O [Example 161, A-(SEQ ID NO: 119)-A] (H-ACESLDPWSCPVWWRCA-NH2; linker 2-10-16 via TATA; N-terminus and C-terminus assumed)
  Kd: 890 nM

## CC(C)C[C@@H]1NC(=O)[C@H](Cc2c[nH]c3ccccc23)NC(=O)[C@H](Cc2c[nH]c3ccccc23)NC(=O)[C@H](CO)NC(=O)[C@H](CO)NC(=O)[C@@H]2CSCCC(=O)N3CN(CN(C3)C(=O)CCSC[C@@H](C(=O)N[C@@H](CCCCN)C(=O)N3CCC[C@H]3C(=O)N[C@@H](CC(=O)O)C(=O)N[C@@H](Cc3c[nH]cn3)C(=O)N[C@H](C(=O)N[C@@H](CC(=O)O)C(=O)N[C@@H](C)C(N)=O)C(C)C)NC1=O)C(=O)CCSC[C@H](NC(=O)[C@H](C)N)C(=O)N[C@@H](CCCNC(=N)N)C(=O)N[C@@H](CC(=O)O)C(=O)N[C@@H](CC(C)C)C(=O)N[C@@H](CC(=O)O)C(=O)N1CCC[C@H]1C(=O)N[C@@H](Cc1c[nH]c3ccccc13)C(=O)N[C@@H]([C@@H](C)O)C(=O)N2 [Example 177, A-(SEQ ID NO: 122)-KPDHVDA]
  Kd: 580 nM

## CC(=O)N[C@H]1CSCCC(=O)N2CN3CN(C2)C(=O)CCSC[C@H](NC(=O)[C@H](CC(=O)O)NC(=O)[C@H](CCC(=O)O)NC(=O)[C@H](CC(C)C)NC(=O)[C@H](Cc2c[nH]c4ccccc24)NC(=O)[C@H](CCC(N)=O)NC1=O)C(=O)N[C@@H](Cc1c[nH]c2ccccc12)C(=O)N[C@@H](CCCNC(=N)N)C(=O)NCC(=O)N[C@@H](Cc1cc(F)c(Cl)c(F)c1)C(=O)N[C@H](C(N)=O)CSCCC3=O [Example 58, Ac-(SEQ ID NO: 46)]
  Kd: 52 nM

## CC(=O)N[C@H]1CSCCC(=O)N2CN3CN(C2)C(=O)CCSC[C@H](NC(=O)[C@H](CC(=O)O)NC(=O)[C@H](CCC(=O)O)NC(=O)[C@H](CC(C)C)NC(=O)[C@H](Cc2cccc4ccccc24)NC(=O)[C@H](CCC(N)=O)NC1=O)C(=O)N[C@@H](Cc1c[nH]c2ccccc12)C(=O)N[C@@H](CCCNC(=N)N(C)C)C(=O)NCC(=O)N[C@@H](Cc1ccc(F)cc1)C(=O)N[C@H](C(=O)O)CSCCC3=O [Example 69, Ac-(SEQ ID NO: 34)-COOH]
  Kd: 77 nM

## CC(C)C[C@@H]1NC(=O)[C@H](Cc2c[nH]c3ccccc23)NC(=O)[C@H](CCC(N)=O)NC(=O)[C@@H](NC(=O)[C@@H](NC(=O)[C@H](CCCNC(=N)N)NC(=O)[C@H](CCC(N)=O)NC(=O)[C@H](CCC(=O)O)NC(=O)[C@H](CC(=O)O)NC(=O)[C@@H](N)CO)[C@@H](C)O)CSCCC(=O)N2CN3CN(C2)C(=O)CCSC[C@H](NC(=O)[C@H](CC(=O)O)NC(=O)[C@H](CCC(=O)O)NC1=O)C(=O)N[C@@H](Cc1c[nH]c2ccccc12)C(=O)N[C@@H](CCCNC(=N)N)C(=O)NCC(=O)N[C@@H](Cc1ccccc1)C(=O)N[C@H](C(=O)N[C@@H](C)C(N)=O)CSCCC3=O [Example 61, SDEQRT-(SEQ ID NO: 38)-A]
  Kd: 62 nM

## CC(=O)N[C@H]1CSCCC(=O)N2CN3CN(C2)C(=O)CCSC[C@H](NC(=O)[C@H](CC(=O)O)NC(=O)[C@H](CCC(=O)O)NC(=O)[C@H](CC(C)C)NC(=O)[C@H](Cc2c[nH]c4ccccc24)NC(=O)[C@H](CCC(N)=O)NC1=O)C(=O)N[C@@H](Cc1c[nH]c2ccccc12)C(=O)N[C@@H](CCONC(=N)N)C(=O)NCC(=O)N[C@@H](Cc1ccccc1)C(=O)N[C@H](C(N)=O)CSCCC3=O [Example 131, Ac-(SEQ ID NO: 92)]
  Kd: 400 nM

## CC(=O)N[C@H]1CSCCC(=O)N2CN3CN(C2)C(=O)CCSC[C@H](NC(=O)[C@H](CC(=O)O)NC(=O)[C@H](CCC(=O)O)NC(=O)[C@H](CC(C)C)NC(=O)[C@H](Cc2c[nH]c4ccccc24)NC(=O)[C@H](CCC(N)=O)NC1=O)C(=O)N[C@@H](Cc1c[nH]c2ccccc12)C(=O)N[C@@H](CCCNC(=N)N)C(=O)NCC(=O)N[C@@H](Cc1cccc(Br)c1)C(=O)N[C@H](C(N)=O)CSCCC3=O [Example 143, Ac-(SEQ ID NO: 102)]
  Kd: 750 nM

## CC(=O)N[C@H]1CSCCC(=O)N2CN3CN(C2)C(=O)CCSC[C@H](NC(=O)[C@H](CC(=O)O)NC(=O)[C@H](CCC(=O)O)NC(=O)[C@H](CC(C)C)NC(=O)[C@H](Cc2c[nH]c4ccccc24)NC(=O)[C@H](CCC(N)=O)NC1=O)C(=O)N[C@@H](Cc1c[nH]c2ccccc12)C(=O)N[C@@H](CCCNC(=N)N)C(=O)NCC(=O)N[C@@H](CCc1ccccc1)C(=O)N[C@H](C(N)=O)CSCCC3=O [Example 148, Ac-(SEQ ID NO: 107)]
  Kd: 1100 nM

## CC(=O)N[C@H]1CSCCC(=O)N2CN3CN(C2)C(=O)CCSC[C@H](NC(=O)[C@H](CC(=O)O)NC(=O)[C@H](CCC(=O)O)NC(=O)[C@H](CC(C)C)NC(=O)[C@H](Cc2c[nH]c4ccccc24)NC(=O)[C@H](CCC(N)=O)NC1=O)C(=O)N[C@@H](Cc1c[nH]c2ccccc12)C(=O)N[C@@H](CCCNC(=N)N)C(=O)NCC(=O)N[C@@H](Cc1ccc(C(F)(F)F)cc1)C(=O)N[C@H](C(N)=O)CSCCC3=O [Example 77, Ac-(SEQ ID NO: 58)]
  Kd: 93 nM

## CC(C)C[C@@H]1NC(=O)[C@H](Cc2c[nH]c3ccccc23)NC(=O)[C@H](Cc2c[nH]c3ccccc23)NC(=O)[C@H]([C@@H](C)O)NC(=O)[C@H](CCC(=O)O)NC(=O)[C@@H]2CSCCC(=O)N3CN(CN(C3)C(=O)CCSC[C@H](N)C(=O)N[C@@H]([C@@H](C)O)C(=O)N[C@@H](CCC(=O)O)C(=O)N[C@@H](CC(C)C)C(=O)N[C@@H](CC(=O)O)C(=O)N3CCC[C@H]3C(=O)N[C@@H](Cc3c[nH]c4ccccc34)C(=O)N[C@@H]([C@@H](C)O)C(=O)N2)C(=O)CCSC[C@@H](C(N)=O)NC1=O [Example 185, (SEQ ID NO: 121)]
  Kd: 260 nM

## CC(C)C[C@@H]1NC(=O)[C@H](Cc2c[nH]c3ccccc23)NC(=O)[C@H](CCC(N)=O)NC(=O)[C@@H](NC(=O)[C@H](CCC(=O)O)NC(=O)[C@H](CC(C)C)NC(=O)[C@H](CC(N)=O)NC(=O)[C@H](CC(N)=O)NC(=O)[C@@H](NC(=O)[C@@H](N)CCC(=O)O)[C@@H](C)O)CSCCC(=O)N2CN3CN(C2)C(=O)CCSC[C@H](NC(=O)[C@H](CC(=O)O)NC(=O)[C@H](CCC(=O)O)NC1=O)C(=O)N[C@@H](Cc1c[nH]c2ccccc12)C(=O)N[C@@H](CCCNC(=N)N)C(=O)NCC(=O)N[C@@H](Cc1ccccc1)C(=O)N[C@H](C(=O)N[C@@H](C)C(N)=O)CSCCC3=O [Example 71, ETNNLE-(SEQ ID NO: 38)-A]
  Kd: 82 nM

## CC(C)C[C@@H]1NC(=O)[C@H](Cc2c[nH]c3ccccc23)NC(=O)[C@H](CC(N)=O)NC(=O)[C@@H](NC(=O)[C@H](C)N)CSCCC(=O)N2CN3CN(C2)C(=O)CCSC[C@H](NC(=O)[C@H](CC(=O)O)NC(=O)[C@H](CCC(=O)O)NC1=O)C(=O)N[C@@H](Cc1c[nH]c2ccccc12)C(=O)N[C@@H](Cc1c[nH]cn1)C(=O)NCC(=O)N[C@@H](Cc1ccccc1)C(=O)N[C@H](C(=O)N[C@@H](Cc1c[nH]cn1)C(=O)N[C@@H](CCC(=O)O)C(=O)N[C@@H](CCC(=O)O)C(N)=O)CSCCC3=O [Example 125, A-(SEQ ID NO: 89)-HEE] (H-ACNWLEDCWHGFCHEE-NH2; linker 2-8-13 via TATA)
  Kd: 300 nM

## CC(C)C[C@@H]1NC(=O)[C@H](Cc2c[nH]c3ccccc23)NC(=O)[C@@H]2CSCCC(=O)N3CN(CN(C3)C(=O)CCSC[C@@H](C(=O)N[C@@H](C)C(N)=O)NC(=O)[C@@H]3CCCN3C1=O)C(=O)CCSC[C@H](NC(=O)[C@H](C)N)C(=O)N[C@@H](CC(=O)O)C(=O)N[C@@H](Cc1c[nH]c3ccccc13)C(=O)N[C@@H](C(C)C)C(=O)N[C@@H](Cc1c[nH]c3ccccc13)C(=O)N[C@@H](CCC(=O)O)C(=O)N[C@@H](Cc1ccc(O)cc1)C(=O)N[C@@H](CC(=O)O)C(=O)N2 [Example 197, A-(SEQ ID NO: 142)-A] (H-ACDWVWEYDCWLPCA-NH2; linker 2-10-14 via TATA; N-terminus and C-terminus assumed)
  Kd: 460 nM

## CC(C)C[C@@H]1NC(=O)[C@H](Cc2c[nH]c3ccccc23)NC(=O)[C@@H]2CSCCC(=O)N3CN(CN(C3)C(=O)CCSC[C@H](NC(=O)CNC(=O)[C@H](CC(=O)O)NC(=O)[C@H](C)N)C(=O)N[C@@H](CCC(=O)O)C(=O)N[C@@H](Cc3c[nH]c4ccccc34)C(=O)N[C@@H](CC(N)=O)C(=O)N[C@@H](Cc3c[nH]c4ccccc34)C(=O)N[C@@H](C)C(=O)N[C@@H](Cc3ccc(O)cc3)C(=O)N[C@@H](CC(=O)O)C(=O)N2)C(=O)CCSC[C@@H](C(=O)N[C@@H](C)C(N)=O)NC(=O)CNC1=O [Example 201, ADG-(SEQ ID NO: 146)-A] (H-ADGCEWNWAYDCWLGCA-NH2; linker 4-12-16 via TATA; N-terminus and C-terminus assumed)
  Kd: 170 nM

## CC(C)C[C@@H]1NC(=O)[C@@H]2CSCCC(=O)N3CN(CN(C3)C(=O)CCSC[C@@H](C(=O)N[C@@H](C)C(N)=O)NC(=O)[C@H](CCC(=O)O)NC(=O)[C@@H]3CCCN3C(=O)[C@H](CCC(N)=O)NC(=O)[C@H](Cc3ccc(O)cc3)NC(=O)[C@H](CC(C)C)NC1=O)C(=O)CCSC[C@H](NC(=O)[C@H](C)N)C(=O)N[C@@H](CCC(N)=O)C(=O)N[C@@H](CCC(=O)O)C(=O)N[C@@H](Cc1c[nH]cn1)C(=O)N[C@@H](CC(=O)O)C(=O)N[C@@H](Cc1c[nH]c3ccccc13)C(=O)N[C@@H](Cc1ccc(O)cc1)C(=O)N2 [Example 231, A-(SEQ ID NO: 158)-A] (H-ACQEHDWYCLLYQPECA-NH2; linker 2-9-16 via TATA; N-terminus and C-terminus assumed)
  Kd: 1800 nM
